In the NIST ThermoML archive (doi:10.1016/j.tca.2013.03.025):

Experiment: xn = mol fraction of the nth substance listed
Details: 101 kPa, Liquid; for viscosity: Concentric cylinders viscometry; for mass density: Vibrating tube method

CCCCOC(=O)C(C)O (stereo not given) [butyl 2-hydroxypropanoate] + CCCO
Details | mass density [kg/m3] | viscosity [mPa·s]
288.15 K, x1 = 0.1 | 841.535 | 2.632
288.15 K, x1 = 0.2 | 869.447 | 2.786
288.15 K, x1 = 0.3001 | 892.853 | 2.979
288.15 K, x1 = 0.3998 | 912.61 | 3.19
288.15 K, x1 = 0.5 | 929.664 | 3.406
288.15 K, x1 = 0.5999 | 944.359 | 3.623
288.15 K, x1 = 0.7001 | 957.317 | 3.83
288.15 K, x1 = 0.7996 | 968.544 | 4.04
288.15 K, x1 = 0.8998 | 978.506 | 4.287
288.15 K, x1 = 1 | 987.269 | 4.628
293.15 K, x1 = 0.1 | 837.385 | 2.305
293.15 K, x1 = 0.2 | 865.152 | 2.431
293.15 K, x1 = 0.3001 | 888.44 | 2.584
293.15 K, x1 = 0.3998 | 908.086 | 2.751
293.15 K, x1 = 0.5 | 925.055 | 2.921
293.15 K, x1 = 0.5999 | 939.67 | 3.092
293.15 K, x1 = 0.7001 | 952.563 | 3.257
293.15 K, x1 = 0.7996 | 963.731 | 3.426
293.15 K, x1 = 0.8998 | 973.646 | 3.622
293.15 K, x1 = 1 | 982.366 | 3.88
298.15 K, x1 = 0.1 | 833.207 | 2.034
298.15 K, x1 = 0.2 | 860.837 | 2.147
298.15 K, x1 = 0.3001 | 883.997 | 2.277
298.15 K, x1 = 0.3998 | 903.535 | 2.413
298.15 K, x1 = 0.5 | 920.415 | 2.548
298.15 K, x1 = 0.5999 | 934.96 | 2.679
298.15 K, x1 = 0.7001 | 947.782 | 2.81
298.15 K, x1 = 0.7996 | 958.893 | 2.946
298.15 K, x1 = 0.8998 | 968.763 | 3.104
298.15 K, x1 = 1 | 977.448 | 3.307
303.15 K, x1 = 0.1 | 828.994 | 1.796
303.15 K, x1 = 0.2 | 856.474 | 1.888
303.15 K, x1 = 0.3001 | 879.517 | 1.994
303.15 K, x1 = 0.3998 | 898.955 | 2.105
303.15 K, x1 = 0.5 | 915.748 | 2.219
303.15 K, x1 = 0.5999 | 930.218 | 2.328
303.15 K, x1 = 0.7001 | 942.977 | 2.439
303.15 K, x1 = 0.7996 | 954.036 | 2.554
303.15 K, x1 = 0.8998 | 963.865 | 2.685
303.15 K, x1 = 1 | 972.515 | 2.85
308.15 K, x1 = 0.1 | 824.744 | 1.603
308.15 K, x1 = 0.2 | 852.093 | 1.679
308.15 K, x1 = 0.3001 | 875.001 | 1.769
308.15 K, x1 = 0.3998 | 894.346 | 1.862
308.15 K, x1 = 0.5 | 911.045 | 1.957
308.15 K, x1 = 0.5999 | 925.444 | 2.05
308.15 K, x1 = 0.7001 | 938.146 | 2.143
308.15 K, x1 = 0.7996 | 949.162 | 2.238
308.15 K, x1 = 0.8998 | 958.949 | 2.346
308.15 K, x1 = 1 | 967.567 | 2.481
313.15 K, x1 = 0.1 | 820.45 | 1.431
313.15 K, x1 = 0.2 | 847.649 | 1.5
313.15 K, x1 = 0.3001 | 870.443 | 1.579
313.15 K, x1 = 0.3998 | 889.684 | 1.659
313.15 K, x1 = 0.5 | 906.306 | 1.739
313.15 K, x1 = 0.5999 | 920.642 | 1.818
313.15 K, x1 = 0.7001 | 933.287 | 1.899
313.15 K, x1 = 0.7996 | 944.258 | 1.982
313.15 K, x1 = 0.8998 | 954.012 | 2.075
313.15 K, x1 = 1 | 962.603 | 2.181
318.15 K, x1 = 0.1 | 816.108 | 1.287
318.15 K, x1 = 0.2 | 843.16 | 1.349
318.15 K, x1 = 0.3001 | 865.84 | 1.417
318.15 K, x1 = 0.3998 | 884.981 | 1.486
318.15 K, x1 = 0.5 | 901.531 | 1.554
318.15 K, x1 = 0.5999 | 915.803 | 1.623
318.15 K, x1 = 0.7001 | 928.398 | 1.693
318.15 K, x1 = 0.7996 | 939.33 | 1.766
318.15 K, x1 = 0.8998 | 949.054 | 1.847
318.15 K, x1 = 1 | 957.624 | 1.935
323.15 K, x1 = 0.1 | 811.714 | 1.169
323.15 K, x1 = 0.2 | 838.623 | 1.222
323.15 K, x1 = 0.3001 | 861.188 | 1.28
323.15 K, x1 = 0.3998 | 880.239 | 1.339
323.15 K, x1 = 0.5 | 896.715 | 1.398
323.15 K, x1 = 0.5999 | 910.93 | 1.458
323.15 K, x1 = 0.7001 | 923.482 | 1.519
323.15 K, x1 = 0.7996 | 934.378 | 1.584
323.15 K, x1 = 0.8998 | 944.076 | 1.653
323.15 K, x1 = 1 | 952.631 | 1.728
